Measurements: ChEMBL document CHEMBL1201862, “PubChem BioAssay data set” (2004)
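Method: 48-hour compound exposure of cells in 96-well plates, five concentrations, linear interpolation of endpoints. Abbreviation: GI50, concentration required for 50% inhibition of growth.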 Active and inactive are the calls of the source. No stated cut-off is given here; in the data, active = GI50 up to about 1.1 µM and inactive = higher.

Columns and labels:
Assay in all cases: DTP human tumour cell line panel, 48 h
A498 = system: A498
CCRF-CEM = system: CCRF-CEM
DU-145 = system: DU-145
EKVX = system: EKVX
HCC 2998 = system: HCC 2998
HOP-62 = system: HOP-62
Malme-3M = system: Malme-3M
OVCAR-4 = system: OVCAR-4
OVCAR-5 = system: OVCAR-5
PC-3 = system: PC-3
RPMI-8226 = system: RPMI-8226
SF-268 = system: SF-268
SF-295 = system: SF-295
SF-539 = system: SF-539
SK-MEL-2 = system: SK-MEL-2
TK-10 = system: TK-10
UACC-257 = system: UACC-257
SK-MEL-5 = system: SK-MEL-5

Measured: GI50

C=C(C)C1CC/C(C)=C/CCC2(C)OC2CC/C(CO)=C\C1O (configuration not stated)
inactive: A498 > 100 µM | CCRF-CEM 19.1 µM | DU-145 > 100 µM | EKVX 91.4 µM | HCC 2998 > 100 µM | HOP-62 > 100 µM | Malme-3M 52.1 µM | OVCAR-4 > 100 µM | OVCAR-5 > 100 µM | PC-3 64.3 µM | RPMI-8226 42.4 µM | SF-268 66.7 µM | SF-295 40.9 µM | SF-539 67 µM | SK-MEL-2 > 100 µM | TK-10 > 100 µM | UACC-257 > 100 µM

COc1ccc(NC(=O)Oc2cc(C)c3ccc(=O)cc-3o2)c(OC)c1.COc1ccc(NC(=O)Oc2ccc3c(C)cc(=O)oc3c2)c(OC)c1
inactive: A498 31.9 µM | DU-145 > 100 µM | EKVX > 100 µM | HCC 2998 82.8 µM | HOP-62 > 100 µM | Malme-3M > 100 µM | OVCAR-4 69.8 µM | OVCAR-5 > 100 µM | PC-3 > 100 µM | RPMI-8226 > 100 µM | SF-268 > 100 µM | SF-295 > 100 µM | SF-539 > 100 µM | SK-MEL-2 > 100 µM | SK-MEL-5 > 100 µM | TK-10 > 100 µM

O=C(Nc1ccc(Cl)cc1Cl)c1cc2nc3ccccc3c(=O)n2c2ccccc12
inactive: A498 > 10 µM | CCRF-CEM > 10 µM | DU-145 > 10 µM | EKVX > 10 µM | HCC 2998 > 10 µM | HOP-62 > 10 µM | Malme-3M > 10 µM | OVCAR-5 > 10 µM | PC-3 > 10 µM | SF-268 > 10 µM | SF-295 > 10 µM | SF-539 > 10 µM | SK-MEL-2 > 10 µM | SK-MEL-5 > 10 µM | TK-10 > 10 µM | UACC-257 > 10 µM

O=C(O)c1ccc(OCc2nc3cc(C(F)(F)F)ccc3nc2-c2ccccc2)cc1
inactive: A498 > 100 µM | CCRF-CEM 42.8 µM | DU-145 60.1 µM | EKVX 55.7 µM | HCC 2998 41.2 µM | HOP-62 66.2 µM | OVCAR-5 > 100 µM | PC-3 53.8 µM | SF-268 41.8 µM | SF-295 39.1 µM | SF-539 32.1 µM | SK-MEL-2 37.9 µM | SK-MEL-5 32.1 µM | TK-10 71 µM | UACC-257 78.7 µM

C=CCc1ccccc1CC1(OCC)OC(=O)c2ccccc21 (configuration not stated)
inactive: A498 > 100 µM | DU-145 > 100 µM | EKVX > 100 µM | HCC 2998 > 100 µM | HOP-62 94 µM | OVCAR-4 > 100 µM | OVCAR-5 > 100 µM | PC-3 83 µM | RPMI-8226 17 µM | SF-268 > 100 µM | SF-295 > 100 µM | SF-539 > 100 µM | SK-MEL-2 89.3 µM | SK-MEL-5 39.9 µM | TK-10 > 100 µM | UACC-257 60.7 µM

CN1Cc2ccccc2/C=C\c2ccccc21
inactive: A498 69.5 µM | CCRF-CEM 47.3 µM | DU-145 > 100 µM | EKVX 30.8 µM | HCC 2998 47.9 µM | HOP-62 > 100 µM | Malme-3M 51.4 µM | OVCAR-4 38.5 µM | PC-3 64 µM | RPMI-8226 25.4 µM | SF-268 39.4 µM | SF-295 62.7 µM | SF-539 > 100 µM | SK-MEL-2 25.4 µM | SK-MEL-5 40.2 µM | TK-10 70.5 µM | UACC-257 > 100 µM
